Measurements from patent US8008525B2, “Receptor function regulating agent” (Takeda Pharmaceutical Company Limited, priority 2003, dated 2011).

Assays:
[1] = target: T1, human 14273 receptor (Homo sapiens, UniProt Q5NUL3); assay: Test Example 1: regulating effect for 14273 receptor function (agonist effect), change in intracellular calcium level by FLIPR; assay type: cell-based; conditions: CHO cell line (No. 104) expressing human 14273 receptor, change of fluorescent intensity after 35 seconds
T1 construct: expressed in transfected cells
T1 sequence (Q5NUL3 1-361): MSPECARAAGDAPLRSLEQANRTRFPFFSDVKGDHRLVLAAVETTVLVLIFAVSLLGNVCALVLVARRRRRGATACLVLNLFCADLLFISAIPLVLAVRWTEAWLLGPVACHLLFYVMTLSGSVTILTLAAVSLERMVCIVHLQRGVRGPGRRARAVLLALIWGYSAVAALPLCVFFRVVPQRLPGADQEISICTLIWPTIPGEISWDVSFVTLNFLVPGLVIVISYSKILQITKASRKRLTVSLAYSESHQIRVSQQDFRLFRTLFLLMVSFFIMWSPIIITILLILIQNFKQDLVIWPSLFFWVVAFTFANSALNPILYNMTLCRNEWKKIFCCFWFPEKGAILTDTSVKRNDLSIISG
Experimental: CHO cell lines (No. 104) in which a human 14273 receptor has expressed was diluted to contain 3×10^4/100 μl cells, and dispensed in Black walled 96-well plate (Costar) at a density of 100 μl/well, followed by culturing overnight in a CO2 incubator. A change in intracellular calcium level was measured using FLIPR (Molecular Device). The method is described as below. 50 μg of Fluo-3AM (DOJIN) was dissolved in 21 μl of DMSO (DOJIN) and an equal volume of 20% pluronic acid (Molecular Probes) was added thereto, followed by mixing them. The mixture was added to 10.6 ml of the assay buffer [which is prepared by adding 10 ml of a solution, which is prepared by adding 20 ml of 1 M HEPES (pH 7.4, DOJIN) to 1 L of HBSS (Invitrogen), dissolving 710 mg of probenecid (Sigma) in 5 ml of 1 N NaOH, and further adding 5 ml of the above-mentioned HBSS/HEPES solution and mixing it.] supplemented with 105 μl of fetal bovine serum to prepare a fluorescent dye solution. The medium of the cell plate was removed, the fluorescent dye solution was dispensed in 100 μl each per well. The culturing was performed in a CO2 incubator for 1 hour to incorporate the fluorescent dye into the cells. The cells after culturing were washed with the assay buffer. The compounds to be added to the cells were diluted to each concentration with a buffer solution to which CHAPS (DOJIN) was added in 0.015%, and dispensed in a plate for the test sample. Following the pretreatment above, a change in intracellular calcium level after addition of the compound was determined with FLIPR to investigate the agonist effect. An EC50 value was calculated from dose-reaction curve using the change of fluorescent intensity after 35 seconds from the reaction initiation.

[2] = tested on: AtT-20 cells; assay: Test Example 3: suppression of CRF-induced ACTH secretion in AtT-20 cells; assay type: cell-based, mouse; conditions: 10 μM of compound; 100 nM CRF; 90 minutes; adherent AtT-20 substrain
Experimental: Influence on ACTH secretion from mouse pituitary corticotrophic cell line AtT-20 cells was analyzed. […] This adherent AtT-20 cell substrain was cultured on a poly-D-lysine-coated 48-well plate at a density of 1×10^5 cells/well for 2 nights, which was provided for assay. […] After washing the cells once with this buffer, a predetermined concentration of the compound was added thereto, followed by addition of a buffer containing 100 nM of a corticotropin-releasing factor (CRF), and followed by culturing at 37° C. for 90 minutes in a CO2 incubator. Then, the plate was gently stirred, then centrifuged at 1200 rpm for 5 minutes at room temperature and the buffer was recovered from the intermediate layer. The ACTH concentration was determined using an ACTH assay kit (Mitsubishi Medical, ACTH IRMA “Yuka”).

[3] = tested on: 3T3-L1 adipocytes; assay: Test Example 2: suppression of lipolysis (glycerol production) in differentiated 3T3-L1 adipocytes; assay type: cell-based, mouse; conditions: treated 45 minutes, isoproterenol 1×10^−10 M, compound 40 μM and 20 μM (FIG. 14)
Experimental: Influence on lipolysis was investigated with use of mouse fibroblast-like cell line 3T3-L1 cells that can differentiate to adipocyte. […] The 3T3-L cells were plated on a plate and cultured to become confluent. The cells were then treated for 48 hours in the medium containing 10 μg/ml of insulin, 0.5 mM of 3-isobutyl-1-methylxanthine (IBMX) and 2.5 μM of dexamethasone to induce differentiation into adipocytes. The culturing was continued for further 11 days. After the 3T3-L1 cells were differentiated into adipocytes, a change in the amount of glycerol produced after lipolysis was assayed. After the cells were washed with modified Krebs-Ringer buffer, they were treated with the compounds for 45 minutes, and the supernatant was then recovered. The glycerol content in the supernatant was determined using a Free Glycerol Determination Kit (Sigma).

| SMILES | EC50 [1] | lowering of the amount of ACTH secretion increased by CRF stimulation [2] | amount of glycerol production increased by isoproterenol stimulation (lipolysis) [3] | amount of glycerol production increased by isoproterenol stimulation (lipolysis) ([3]; listed as Reference example 16) |
| --- | --- | --- | --- | --- |
| O=C(O)CCc1ccc(OCc2cccc(Oc3ccc(F)cc3)c2)c(F)c1 [Example 161, 3-(3-fluoro-4-{[3-(4-fluorophenoxy)benzyl]oxy}phenyl)propanoic acid] | ≤ 10 µM | 49% | – | – |
| O=C(O)CCc1ccc(OC2CCc3ccccc32)c(Cl)c1 (centres unmarked) [Reference Example 16, 3-Chloro-4-[(2,3-dihydro-1H-inden-1-yl)oxy]benzenepropanoic acid] | ≤ 10 µM | – | inhibitory effect | lowering the amount of the glycerol production |
